No end group written: not given here.
System: not listed separately
Assay: in vitro
Conditions: human, WI38 normal lung fibroblast cells

Row | Substance | CC50 at 24 h
1 | FAKKFAKKFKKFAKKFAKFAFAF-NH2 [compound 147] | 66 µg/mL

Same assay, conditions: human, WI38 normal lung fibroblast cells, LD50 WI38, WI38 normal lung fibroblast line, MTT, 24 hours with peptide

Row | Substance | CC50 at 24 h
2 | FAKLAKKALAKLL-NH2 [P148] | 380 µg/mL
3 | FAKLFAKLAKKFAL-NH2 [P121, FAKLFAKLAKKFAL-NH2] | 625 µg/mL
4 | FAKLLAKLAKAKA-NH2 [P95] | 250 µg/mL
5 | FALALKLKKL-NH2 [P181] | 500 µg/mL
6 | FAKIIAKIAKIAKKIL-NH2 [P139] | 550 µg/mL

Same assay, conditions: human, WI38 normal lung fibroblast cells, Peptide toxicity WI-38 LD/50, human fibroblast cells

Row | Substance | CC50 at 24 h
7 | FAKLLAKLAKAKA-NH2 [compound 61] | > 1000 µg/mL

System: BMKC
Assay: Anti-cancer assay, MTT, LD50
Type: cell-based
Conditions: BMKC cloned melanoma line, 24 hours with peptide
Text: (§1) Numbers are LD50 values (μg/mL).

Row | Substance | LD50 BMKC
8 | FAKLAKKALAKLL-NH2 [P148] | 330 µg/mL
9 | FAKLFAKLAKKFAL-NH2 [P121, FAKLFAKLAKKFAL-NH2] | 670 µg/mL
10 | FAKLLAKLAKAKA-NH2 [P95] | 820 µg/mL
11 | FALALKLKKL-NH2 [P181] | 830 µg/mL
12 | FAKIIAKIAKIAKKIL-NH2 [P139] | 525 µg/mL

System: PC3
Assay: Anti-cancer assay, MTT, LD50
Type: cell-based
Conditions: 24 hours with peptide, prostate adenocarcinoma
Text: as §1

Row | Substance | PC3 LD50
13 | FAKLAKKALAKLL-NH2 [P148] | > (> indicates greater than 1000)
14 | FAKLFAKLAKKFAL-NH2 [P121, FAKLFAKLAKKFAL-NH2] | > (> indicates greater than 1000)
15 | FAKLLAKLAKAKA-NH2 [P95] | > (> indicates greater than 1000)
16 | FALALKLKKL-NH2 [P181] | > (> indicates greater than 1000)
17 | FAKIIAKIAKIAKKIL-NH2 [P139] | > (> indicates greater than 1000)

System: SW480
Assay: Anti-cancer assay, MTT, LD50
Type: cell-based
Conditions: SW480 colon adenocarcinoma line, 24 hours with peptide
Text: as §1

Row | Substance | LD50 SW480
18 | FAKLAKKALAKLL-NH2 [P148] | > (> indicates greater than 1000)
19 | FAKLFAKLAKKFAL-NH2 [P121, FAKLFAKLAKKFAL-NH2] | 800 µg/mL
20 | FAKLLAKLAKAKA-NH2 [P95] | > (> indicates greater than 1000)
21 | FALALKLKKL-NH2 [P181] | 870 µg/mL
22 | FAKIIAKIAKIAKKIL-NH2 [P139] | > (> indicates greater than 1000)

System: H1299
Assay: Anti-cancer assay, MTT, LD50
Type: cell-based
Conditions: 24 hours with peptide, lung large cell carcinoma
Text: as §1

Row | Substance | H1299 LD50
23 | FAKLAKKALAKLL-NH2 [P148] | 660 µg/mL
24 | FAKLFAKLAKKFAL-NH2 [P121, FAKLFAKLAKKFAL-NH2] | 460 µg/mL
25 | FAKLLAKLAKAKA-NH2 [P95] | > (> indicates greater than 1000)
26 | FALALKLKKL-NH2 [P181] | > (> indicates greater than 1000)
27 | FAKIIAKIAKIAKKIL-NH2 [P139] | 850 µg/mL

System: MCF7
Assay: Anti-cancer assay, MTT, LD50
Type: cell-based
Conditions: MCF7 breast adenocarcinoma line, MTT, 24 hours with peptide
Text: as §1

Row | Substance | LD50 MCF7
28 | FAKLAKKALAKLL-NH2 [P148] | 315 µg/mL
29 | FAKLFAKLAKKFAL-NH2 [P121, FAKLFAKLAKKFAL-NH2] | 400 µg/mL
30 | FAKLLAKLAKAKA-NH2 [P95] | > (> indicates greater than 1000)
31 | FALALKLKKL-NH2 [P181] | 550 µg/mL
32 | FAKIIAKIAKIAKKIL-NH2 [P139] | 625 µg/mL

System: HeLaS3
Assay: Anti-cancer assay, MTT, LD50
Type: cell-based
Conditions: 24 hours with peptide, cervical carcinoma
Text: as §1

Row | Substance | HeLaS3 LD50
33 | FAKLAKKALAKLL-NH2 [P148] | > (> indicates greater than 1000)
34 | FAKLFAKLAKKFAL-NH2 [P121, FAKLFAKLAKKFAL-NH2] | 830 µg/mL
35 | FAKLLAKLAKAKA-NH2 [P95] | > (> indicates greater than 1000)
36 | FALALKLKKL-NH2 [P181] | > (> indicates greater than 1000)
37 | FAKIIAKIAKIAKKIL-NH2 [P139] | > (> indicates greater than 1000)

System: WI38
Assay: not given
Conditions: MTT, 24 hours with peptide; normal fibroblast line

Row | Substance | WI38 LD50
38 | FAKLAKKALAKLL-NH2 [P148] | 380 µg/mL
39 | FAKLFAKLAKKFAL-NH2 [P121, FAKLFAKLAKKFAL-NH2] | 625 µg/mL
40 | FAKLLAKLAKAKA-NH2 [P95] | 250 µg/mL
41 | FALALKLKKL-NH2 [P181] | 500 µg/mL
42 | FAKIIAKIAKIAKKIL-NH2 [P139] | 550 µg/mL

System: human red blood cells (RBC)
Assay: in vitro
Type: cell-based
Conditions: hemolytic assay, concentration at 50% hemolysis, 1 hour at 37° C.

Row | Substance | LD50
43 | FAKLAKKALAKLL-NH2 [P148] | > (> indicates greater than 1000)
44 | FAKLFAKLAKKFAL-NH2 [P121, FAKLFAKLAKKFAL-NH2] | > (> indicates greater than 1000)
45 | FAKLLAKLAKAKA-NH2 [P95] | > (> indicates greater than 1000)
46 | FALALKLKKL-NH2 [P181] | > (> indicates greater than 1000)
47 | FAKIIAKIAKIAKKIL-NH2 [P139] | > (> indicates greater than 1000)

Same assay, conditions: human red blood cells

Row | Substance | Peptide toxicity RBC LD/50
48 | FAKLLAKLAKAKA-NH2 [compound 61] | >1000
49 | FAKKFAKKFKKFAKKFAKFAFAF-NH2 [compound 147] | 10

System: Staphylococcus aureus ATCC 6538
Assay: Antimicrobial assay I, MIC by OD measurement
Type: cell-based
Conditions: 37° C. for 24 hours, absorbance 620 nm

Row | Substance | staph6538 (MIC)
50 | FAKLAKKALAKLL-NH2 [P148] | > (> indicates greater than 200 μg/mL)
51 | FAKLFAKLAKKFAL-NH2 [P121, FAKLFAKLAKKFAL-NH2] | 50 µg/mL
52 | FAKLLAKLAKAKA-NH2 [P95] | 100 µg/mL
53 | FALALKLKKL-NH2 [P181] | 100 µg/mL
54 | FAKIIAKIAKIAKKIL-NH2 [P139] | 50 µg/mL

System: Pseudomonas aeruginosa ATCC 9027
Assay: Antimicrobial assay I, MIC by OD measurement
Type: cell-based
Conditions: 37° C. for 24 hours, absorbance 620 nm

Row | Substance | paerug9027 (MIC)
55 | FAKLAKKALAKLL-NH2 [P148] | 200 µg/mL
56 | FAKLFAKLAKKFAL-NH2 [P121, FAKLFAKLAKKFAL-NH2] | > (> indicates greater than 200 μg/mL)
57 | FAKLLAKLAKAKA-NH2 [P95] | 200 µg/mL
58 | FALALKLKKL-NH2 [P181] | 200 µg/mL
59 | FAKIIAKIAKIAKKIL-NH2 [P139] | 25 µg/mL

System: human leukocyte (WBC) cells
Assay: Stimulation and proliferation of leukocytes, Alamar Blue
Type: cell-based
Conditions: 0.1 ug/ml, 48 hours
Protocol: In vitro viability of human leukocyte cells in the presence of different peptides at different concentrations was determined by an Alamar Blue protocol. Alamar Blue (Promega, Madison, Wis.) is an indicator dye, formulated to measure quantitatively the proliferation and cytotoxicity of the cells. The dye consists of an oxidation-reduction (redox) indicator that yields a calorimetric change and a fluorescent signal in response to cellular metabolic activity.
Assay protocol: Blood from a human was drawn and centrifuged at 1500 rpm for 15 minutes at room temperature. The buffy coat cells at the plasma-red blood cell interface were aspirated. Buffy coat cells (mainly lymphocyte cells) were then transferred into 15 ml centrifuge tubes containing 5 ml of RPMI-1640 medium+10% Fetal Bovine Serum (Gibco, Grand Island, N.Y.). Additional medium was added to the tubes to bring the volume up to 10 ml. The buffy coat suspension was then carefully layered on 5 ml of Histopaque (Sigma Chemical Co., St. Louis, Mo.) and centrifuged at 1500 rpm for 30 minutes at room temperature. The interface which is mostly PBMCs (peripheral mononuclear cells) was aspirated and transferred to a 15 ml conical centrifuge tube and, resuspended in 2 ml cold RPMI-1640 and brought up to 15 ml with cold RPMI-1640 medium. Cells were centrifuged at 1500 rpm for 10 minutes. The supernatant was then aspirated and discarded. The cell pellet was re-suspended in 1 ml of cold RPMI 1640 and brought up to 15 ml with RPMI medium. This step was repeated twice, except that in the last step, the cells were resuspended with 1 ml of cold RPMI-1640 medium and cell counts were performed with a hemocytometer according to the Sigma cell culture catalogue.
Pokewood mitogen was used as a control along with positive and negative controls. Negative control cells were killed with 70% methanol. Positive (+) control cells were incubated in RPMI medium (untreated). […] of AlamarBlue was added to the cells, and readings were taken after 24 hours, 48 hours, 72 hours, and 96 hours using a fluorimeter (excitation 544/transmission 590 nm).
Calculations were performed using the following formula. The peptide treated sample and positive control were adjusted for negative control. [formula]
Using the protocol described immediately above, about 100-150 peptides were screened for their stimulatory and/or inhibitory actions upon the growth of human leukocyte (“WBC”) cells as compared to the growth of untreated positive control cells.
The Alamar Blue stain used in the protocol permeates both cell and nuclear membranes, and is metabolized in the mitochondria to cause the change in color. The resulting fluorometric response is therefore a result of total mitochondrial activity caused by cell stimulation and/or mitosis (cell proliferation).

Row | Substance | Peptide treated cell activity Percent stimulation relative to control
60 | FAKLLAKLAKAKA-NH2 [compound 61] | 110%
61 | FAKKFAKKFKKFAKKFAKFAFAF-NH2 [compound 147] | 100%

Same assay, conditions: 1 ug/ml, 48 hours

Row | Substance | Peptide treated cell activity Percent stimulation relative to control
62 | FAKLLAKLAKAKA-NH2 [compound 61] | 115%
63 | FAKKFAKKFKKFAKKFAKFAFAF-NH2 [compound 147] | 94%

Same assay, conditions: 10 ug/ml, 48 hours

Row | Substance | Peptide treated cell activity Percent stimulation relative to control
64 | FAKLLAKLAKAKA-NH2 [compound 61] | 116%
65 | FAKKFAKKFKKFAKKFAKFAFAF-NH2 [compound 147] | 83%

Same assay, conditions: 100 ug/ml, 48 hours

Row | Substance | Peptide treated cell activity Percent stimulation relative to control
66 | FAKLLAKLAKAKA-NH2 [compound 61] | 124%
67 | FAKKFAKKFKKFAKKFAKFAFAF-NH2 [compound 147] | 22%

Same assay, conditions: 500 ug/ml, 48 hours

Row | Substance | Peptide treated cell activity Percent stimulation relative to control
68 | FAKLLAKLAKAKA-NH2 [compound 61] | 114%
69 | FAKKFAKKFKKFAKKFAKFAFAF-NH2 [compound 147] | 20%

System: yeast (Saccharomyces cerevisiae)
Assay: Antimicrobial assay I, yeast assay in RPMI 1640
Type: cell-based
Conditions: RPMI 1640 media

Row | Substance | yeast (MIC or MFC)
70 | FAKLAKKALAKLL-NH2 [P148] | 200 µg/mL
71 | FAKLFAKLAKKFAL-NH2 [P121, FAKLFAKLAKKFAL-NH2] | 100 µg/mL
72 | FAKLLAKLAKAKA-NH2 [P95] | > (> indicates greater than 200 μg/mL)
73 | FALALKLKKL-NH2 [P181] | 100 µg/mL
74 | FAKIIAKIAKIAKKIL-NH2 [P139] | 200 µg/mL

Reference: patent US20050209157A1, “Short bioactive peptides and methods for their use” (priority 2001, published 2005)
